Measured values taken from patent publication US20250051319A1 (AUGUSTINE THERAPEUTICS, priority 2021, published 2025).
pIC50: −log10 of the molar value.

How the values were obtained:
[1] = target: catalytic domain 2 (CD2) of HDAC6 (Homo sapiens (Human), UniProt Q9UBN7); test: Cellular target engagement assay - NanoBRET; type: cell-based; conditions: NanoLuc-HDAC6(CD2) in HEK293T cells, 2 hours, read-out: IC50 (HDAC6(CD2) interaction)
[2] = target: T1, human full-length recombinant HDAC6 (Homo sapiens (Human), UniProt Q9UBN7); test: HDAC6 enzymatic activity assay (Reaction Biology Corporation, RHKKAc fluorogenic peptide); type: biochemical; conditions: Reaction Biology Corporation protocol, RHKKAc fluorogenic peptide 10 μM; read-out: HDAC6 biochem
Method: (§1) Dose response testing of HDAC6 and HDAC 1 were run at Reaction Biology Corporation (RBC). Inhibition of HDAC enzymes was performed using N-terminal GST tagged human full-length recombinant HDAC6 (H88-30G, SignalChem) and C-terminal FLAG His tag human full-length recombinant HDAC1 produced in insect cells (KDA-21-365, RBC). Enzyme reactions were run in 50 mM Tris-HCl, pH8.0, 137 mM NaCl, 2.7 mM KCl, and 1 mM MgCl2 with 1 mg/ml BSA, 1% DMSO freshly added. 2× enzyme was delivered in the wells of the reaction plate except for the “no enzyme” control wells. In the latter, buffer was added. Compounds in 100% DMSO were delved into the enzyme mixture by acoustic technology (Echo550). Plates are spun down and compounds were incubation with the enzyme for 10 min at room temperature. 2× Fluorogenic peptide from p53 residues 379-382 (RHKKAc, 10 μM final concentration) was added in all wells to initiate the reaction, followed by 1 h incubation at 30° C. Developer containing Trichostatin A was added to stop the reaction and generate fluorescent color. A kinetic measurement was carried out for 20 min with 5 min interval on the Envision plate reader (Perkin Elmer, Ex/Em=360/460). End point reading i.e., plateau of the development reaction was used for analysis. Data was reported by RBC as percentage enzyme activity. Percentage inhibition was calculated by subtracting percentage enzyme activity from 100. IC50 values were calculated using GraphPad Prism 9 based on the log(inhibitor) vs. response—Variable slope (four parameters) equation.

[3] = target: T2, human full-length recombinant HDAC1 (Homo sapiens (Human), UniProt Q13547); test: HDAC1 enzymatic activity assay (Reaction Biology Corporation, RHKKAc fluorogenic peptide); type: biochemical; conditions: Reaction Biology Corporation protocol, RHKKAc fluorogenic peptide 10 μM; read-out: HDAC1 biochem
Method: as §1

[4] = target: T1, human full-length recombinant HDAC6; test: HDAC6 enzymatic activity assay (alternative protocol, Ac-Gly-Ala-Lys(Ac)-AMC); type: biochemical; conditions: 5 nM enzyme, read-out: HDAC6 biochem
Method in brief: (§2)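 Sf9-expressed enzymes (4 nM HDAC1, 5 nM HDAC6) preincubated 10 min at RT with compound, then 60 min with Ac-Gly-Ala-Lys(Ac)-AMC ([…] HDAC1, 40 µM HDAC6); pH 8.0 Tris buffers, HDAC6 buffer with EDTA and DTT. Trypsin/SAHA developer stop, fluorescence 360/450 nm after 15 min; normalized to DMSO (100%) and 10 μM SAHA (0%).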

[5] = target: T2, human full-length recombinant HDAC1; test: HDAC1 enzymatic activity assay (alternative protocol, Ac-Gly-Ala-Lys(Ac)-AMC); type: biochemical; conditions: 4 nM enzyme, read-out: HDAC1 biochem
Method in brief: as §2

T2 sequence (Q13547 whole entry): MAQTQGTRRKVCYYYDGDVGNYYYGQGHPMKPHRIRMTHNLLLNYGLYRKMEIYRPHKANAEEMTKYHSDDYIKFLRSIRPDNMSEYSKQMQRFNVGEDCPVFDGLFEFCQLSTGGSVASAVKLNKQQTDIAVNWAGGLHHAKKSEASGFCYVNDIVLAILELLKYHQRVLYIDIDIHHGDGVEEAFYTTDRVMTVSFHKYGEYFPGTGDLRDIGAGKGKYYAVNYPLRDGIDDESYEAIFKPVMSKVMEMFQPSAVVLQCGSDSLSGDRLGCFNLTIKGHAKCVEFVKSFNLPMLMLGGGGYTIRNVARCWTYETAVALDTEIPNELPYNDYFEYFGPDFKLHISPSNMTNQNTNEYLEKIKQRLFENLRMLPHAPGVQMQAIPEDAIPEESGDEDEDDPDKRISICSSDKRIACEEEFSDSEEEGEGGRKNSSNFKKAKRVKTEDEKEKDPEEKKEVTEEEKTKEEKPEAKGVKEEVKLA
T1 sequence (Q9UBN7 whole entry): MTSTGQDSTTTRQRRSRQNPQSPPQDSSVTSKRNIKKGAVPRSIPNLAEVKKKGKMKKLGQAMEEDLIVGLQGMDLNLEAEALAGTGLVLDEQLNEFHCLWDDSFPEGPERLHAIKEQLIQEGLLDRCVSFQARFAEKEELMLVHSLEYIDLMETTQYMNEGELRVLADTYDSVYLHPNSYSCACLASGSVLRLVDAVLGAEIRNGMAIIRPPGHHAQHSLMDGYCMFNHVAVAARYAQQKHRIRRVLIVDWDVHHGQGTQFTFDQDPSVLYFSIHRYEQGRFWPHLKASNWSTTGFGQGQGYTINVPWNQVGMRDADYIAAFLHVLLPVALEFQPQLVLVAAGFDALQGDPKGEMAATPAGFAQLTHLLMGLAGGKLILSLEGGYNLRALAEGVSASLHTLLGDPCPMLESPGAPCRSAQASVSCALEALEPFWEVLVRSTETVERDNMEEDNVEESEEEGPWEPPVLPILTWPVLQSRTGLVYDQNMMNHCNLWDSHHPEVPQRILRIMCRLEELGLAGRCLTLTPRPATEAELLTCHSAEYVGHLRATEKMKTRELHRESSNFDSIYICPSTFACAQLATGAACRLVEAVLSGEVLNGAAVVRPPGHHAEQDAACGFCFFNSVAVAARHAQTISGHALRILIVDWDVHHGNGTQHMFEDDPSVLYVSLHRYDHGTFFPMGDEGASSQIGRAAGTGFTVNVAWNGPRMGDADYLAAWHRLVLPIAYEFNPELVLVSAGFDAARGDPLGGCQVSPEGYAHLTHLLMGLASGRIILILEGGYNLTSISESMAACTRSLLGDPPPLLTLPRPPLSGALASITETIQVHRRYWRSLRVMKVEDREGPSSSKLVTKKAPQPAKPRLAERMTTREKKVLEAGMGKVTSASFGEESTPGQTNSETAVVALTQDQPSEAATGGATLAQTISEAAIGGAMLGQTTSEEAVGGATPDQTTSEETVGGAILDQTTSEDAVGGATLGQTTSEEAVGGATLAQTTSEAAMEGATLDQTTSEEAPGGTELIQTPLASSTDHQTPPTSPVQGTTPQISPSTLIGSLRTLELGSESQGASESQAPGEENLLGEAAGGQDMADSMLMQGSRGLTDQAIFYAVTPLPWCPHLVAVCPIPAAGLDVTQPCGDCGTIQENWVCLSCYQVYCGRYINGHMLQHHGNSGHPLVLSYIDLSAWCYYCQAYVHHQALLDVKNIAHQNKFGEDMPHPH
Sequence of catalytic domain 2 (CD2) of HDAC6 (Q9UBN7 482-800): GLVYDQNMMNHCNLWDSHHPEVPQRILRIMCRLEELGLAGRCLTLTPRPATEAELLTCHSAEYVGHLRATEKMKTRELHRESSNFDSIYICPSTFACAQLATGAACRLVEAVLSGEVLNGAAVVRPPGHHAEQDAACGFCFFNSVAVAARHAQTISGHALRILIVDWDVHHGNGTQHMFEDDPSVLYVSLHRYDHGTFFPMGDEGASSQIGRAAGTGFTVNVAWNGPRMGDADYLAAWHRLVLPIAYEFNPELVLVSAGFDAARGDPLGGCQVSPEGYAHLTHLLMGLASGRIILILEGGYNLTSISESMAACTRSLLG

pIC50 [1] | pIC50 [2] | pIC50 [3] | pIC50 [4] | pIC50 [5] | SMILES
≥ 7.00 | ≥ 7.00 | < 5.00 | – | – | COCCn1ncc2c(SCC(=O)c3ccc(CNC(=O)CO)s3)nc(C(F)(F)F)nc21 [Compound 125, 2-hydroxy-N-((5-(2-((1-(2-methoxyethyl)-6-(trifluoromethyl)-1H-pyrazolo[3,4-d]pyrimidin-4-yl)thio)acetyl)thiophen-2-yl)methyl)acetamide]
≥ 7.00 | ≥ 7.00 | < 5.00 | – | – | Cc1nc(SCC(=O)c2ccc(CNC(=O)CO)s2)c2cc(OC(F)(F)F)ccc2n1 [Compound 126, 2-hydroxy-N-((5-(2-((2-methyl-6-(trifluoromethoxy)quinazolin-4-yl)thio)acetyl)thiophen-2-yl)methyl)acetamide]
≥ 7.00 | ≥ 7.00 | < 5.00 | – | – | COCCn1cc2c(SCC(=O)c3ccc(CNC(=O)CO)s3)nc(C(F)(F)F)nc2n1 [Compound 132, 2-hydroxy-N-((5-(2-((2-(2-methoxyethyl)-6-(trifluoromethyl)-2H-pyrazolo[3,4-d]pyrimidin-4-yl)thio)acetyl)thiophen-2-yl)methyl)acetamide]
≥ 7.00 | ≥ 7.00 | < 5.00 | – | – | O=C(CO)NCc1ccc(C(=O)CSc2nc(C(F)(F)F)nc3c2cnn3C2CC2)s1 [Compound 133, N-((5-(2-((1-cyclopropyl-6-(trifluoromethyl)-1H-pyrazolo[3,4-d]pyrimidin-4-yl)thio)acetyl)thiophen-2-yl)methyl)-2-hydroxyacetamide]
≥ 7.00 | ≥ 7.00 | < 5.00 | – | – | CCn1cc2c(SCC(=O)c3ccc(CNC(=O)CO)s3)nc(C(F)(F)F)nc2n1 [Compound 135, N-((5-(2-((2-ethyl-6-(trifluoromethyl)-2H-pyrazolo[3,4-d]pyrimidin-4-yl)thio)acetyl)thiophen-2-yl)methyl)-2-hydroxyacetamide]
≥ 7.00 | ≥ 7.00 | < 5.00 | – | – | COc1cnc2nc(C)nc(SCC(=O)c3ccc(CNC(=O)CO)s3)c2c1 [Compound 140, 2-hydroxy-N-((5-(2-((6-methoxy-2-methylpyrido[2,3-d]pyrimidin-4-yl)thio)acetyl)thiophen-2-yl)methyl)acetamide]
≥ 7.00 | ≥ 7.00 | < 5.00 | – | – | Cc1nc(SCC(=O)c2ccc(CNC(=O)CO)s2)c2cc(Cl)cc(F)c2n1 [Compound 142, N-((5-(2-((6-chloro-8-fluoro-2-methylquinazolin-4-yl)thio)acetyl)thiophen-2-yl)methyl)-2-hydroxyacetamide]
≥ 7.00 | ≥ 7.00 | < 5.00 | – | – | COc1cc(C(F)(F)F)cc2c(SCC(=O)c3ccc(CNC(=O)CO)s3)nc(C)nc12 [Compound 148, 2-hydroxy-N-((5-(2-((8-methoxy-2-methyl-6-(trifluoromethyl)quinazolin-4-yl)thio)acetyl)thiophen-2-yl)methyl)acetamide]
≥ 7.00 | ≥ 7.00 | < 5.00 | – | – | O=C(CO)NCc1ccc(C(=O)CSc2nc(C(F)(F)F)nc3cccnc23)s1 [Compound 152, 2-hydroxy-N-((5-(2-((2-(trifluoromethyl)pyrido[3,2-d]pyrimidin-4-yl)thio)acetyl)thiophen-2-yl)methyl)acetamide]
5.00 to 6.00 | ≥ 7.00 | < 5.00 | ≥ 7.00 | < 5.00 | Cn1ncc2c(SCC(=O)c3ccc(CNC(=O)C4CC4)s3)ncnc21 [Example 31, N-((5-(2-((1-methyl-1H-pyrazolo[3,4-d]pyrimidin-4-yl)thio)acetyl)thiophen-2-yl)methyl)cyclopropanecarboxamide]
6.30 to 7.00 | ≥ 7.00 | < 5.00 | – | – | O=C(CSc1nc(C(F)(F)F)nc2nn(C3CC3)cc12)c1ccc(CNC(=O)C2CC2(F)F)s1 (centres unmarked) [Example 43, N-((5-(2-((2-cyclopropyl-6-(trifluoromethyl)-2H-pyrazolo[3,4-d]pyrimidin-4-yl)thio)acetyl)thiophen-2-yl)methyl)-2,2-difluorocyclopropane-1-carboxamide]
6.30 to 7.00 | ≥ 7.00 | < 5.00 | – | – | O=C(CSc1nc(C(F)(F)F)nc2nn(C3CC3)cc12)c1ccc(CNC(=O)C(F)(F)C(F)(F)F)s1 [Example 44, N-((5-(2-((2-cyclopropyl-6-(trifluoromethyl)-2H-pyrazolo[3,4-d]pyrimidin-4-yl)thio)acetyl)thiophen-2-yl)methyl)-2,2,3,3,3-pentafluoropropanamide]
≥ 7.00 | ≥ 7.00 | < 5.00 | – | – | COc1ccc2nc(C)nc(SCC(=O)c3ccc(CNC(=O)CO)s3)c2c1 [Example 60, 2-Hydroxy-N-((5-(2-((6-methoxy-2-methylquinazolin-4-yl)thio)acetyl)thiophen-2-yl)methyl)acetamide]
≥ 7.00 | ≥ 7.00 | < 5.00 | – | – | O=C(CSc1nc(C(F)(F)F)nc2ncccc12)c1ccc(CN2CCOCC2=O)s1 [Example 138, 4-((5-(2-((2-(trifluoromethyl)pyrido[2,3-d]pyrimidin-4-yl)thio)acetyl)thiophen-2-yl)methyl)morpholin-3-one]
